# Measured values: PMC6528465 (ACS infectious diseases, 2018)
# Assays:
# Mtb H37Rv = format: cell-based, Mycobacterium tuberculosis; conditions: no inhibitor
# A549 (lung) = experiment: Mammalian cytotoxicity A549; format: cell-based; conditions: 1% v/v in 0.5% DMSO
# HEK-293 (kidney) = experiment: Mammalian cytotoxicity HEK-293; format: cell-based; conditions: 1% v/v in 0.5% DMSO
# J774A.1 (macrophage) = experiment: Mammalian cytotoxicity J774A.1; format: cell-based; conditions: 1% v/v in 0.5% DMSO
compound,measurement,setting,value
"NC[C@H]1O[C@H](O[C@H]2[C@H](O)[C@@H](O[C@H]3O[C@H](CO)[C@@H](O)[C@H](N)[C@H]3O)[C@H](N)C[C@@H]2N)[C@H](O)[C@@H](O)[C@@H]1O [KAN, kanamycin]",H37RV MICKAN,Mtb H37Rv,<1.25 µg/mL
Triton-X 100,cell survival (positive control),A549 (lung),< 5%
same,cell survival (positive control),HEK-293 (kidney),< 5%
same,cell survival (positive control),J774A.1 (macrophage),< 5%
